# According to ChEMBL document CHEMBL3822390, “Synthesis, characterization and anti-cancer activity of a peptide nucleolipid bioconjugate” (2016):
# How the values were obtained:
# Format in all cases: functional
# EKVX [1] = assay: Cytotoxicity against human EKVX cells assessed as cell growth at 10 uM after 48 hrs by SRB assay; settings: read-out: Activity
# [2] = Cytotoxicity against human HOP92 cells assessed as cell growth at 10 uM after 48 hrs by SRB assay; settings: HOP-92, 48 h, read-out: Activity
# [3] = Cytotoxicity against human COLO205 cells assessed as cell growth at 10 uM after 48 hrs by SRB assay; settings: COLO 205, 48 h, read-out: Activity
# KM12 = assay: Cytotoxicity against human KM12 cells assessed as cell growth at 10 uM after 48 hrs by SRB assay; settings: KM12, 48 h, read-out: Activity
# [4] = Cytotoxicity against human SF295 cells assessed as cell growth at 10 uM after 48 hrs by SRB assay; settings: SF-295, 48 h, read-out: Activity
# [5] = Cytotoxicity against human LOXIMVI cells assessed as cell growth at 10 uM after 48 hrs by SRB assay; settings: LOX IMVI, read-out: Activity
# M14 = assay: Cytotoxicity against human M14 cells assessed as cell growth at 10 uM after 48 hrs by SRB assay; settings: M14, 48 h, read-out: Activity
# SK-MEL-5 = assay: Cytotoxicity against human SK-MEL-5 cells assessed as cell growth at 10 uM after 48 hrs by SRB assay; settings: SK-MEL-5, 48 h, read-out: Activity
# [6] = Cytotoxicity against human UACC257 cells assessed as cell growth at 10 uM after 48 hrs by SRB assay; settings: UACC-257, 48 h, read-out: Activity
# [7] = Cytotoxicity against human OVCAR3 cells assessed as cell growth at 10 uM after 48 hrs by SRB assay; settings: OVCAR-3, 48 h, read-out: Activity
# [8] = Cytotoxicity against human OVCAR4 cells assessed as cell growth at 10 uM after 48 hrs by SRB assay; settings: OVCAR-4, 48 h, read-out: Activity
# 786-0 [9] = assay: Cytotoxicity against human 786-0 cells assessed as cell growth at 10 uM after 48 hrs by SRB assay; settings: 786-0, 48 h, read-out: Activity
# ACHN [10] = assay: Cytotoxicity against human ACHN cells assessed as cell growth at 10 uM after 48 hrs by SRB assay; settings: read-out: Activity
# NCI-H226 = assay: Cytotoxicity against human NCI-H226 cells assessed as cell mortality at 7.25 uM after 48 hrs by SRB assay; settings: NCI-H226, 48 h
# [11] = Cytotoxicity against human SF539 cells assessed as cell growth at 7.25 uM after 48 hrs by SRB assay; settings: SF-539, 48 h, read-out: Activity
# [12] = Cytotoxicity against human SNB19 cells assessed as cell growth at 7.25 uM after 48 hrs by SRB assay; settings: SNB-19, 48 h, read-out: Activity
# Malme-3M = assay: Cytotoxicity against human MALME-3M cells assessed as cell growth at 7.25 uM after 48 hrs by SRB assay; settings: read-out: Activity
# [13] = Cytotoxicity against human OVCAR8 cells assessed as cell growth at 7.25 uM after 48 hrs by SRB assay; settings: OVCAR-8, 48 h, read-out: Activity
# [14] = Cytotoxicity against human SKOV3 cells assessed as cell growth at 7.25 uM after 48 hrs by SRB assay; settings: SK-OV-3, 48 h, read-out: Activity
# ACHN [15] = assay: Cytotoxicity against human ACHN cells assessed as cell growth at 7.25 uM after 48 hrs by SRB assay; settings: read-out: Activity
# SN12C = assay: Cytotoxicity against human SN12C cells assessed as cell growth at 7.25 uM after 48 hrs by SRB assay; settings: read-out: Activity
# [16] = Cytotoxicity against human TK10 cells assessed as cell growth at 7.25 uM after 48 hrs by SRB assay; settings: TK-10, 48 h, read-out: Activity
# CCRF-CEM = assay: Cytotoxicity against human CCRF-CEM cells assessed as cell growth at 7.25 uM after 48 hrs by SRB assay; settings: read-out: Activity
# A549 [17] = assay: Cytotoxicity against human A549 cells assessed as cell growth at 7.25 uM after 48 hrs by SRB assay; settings: A549, 48 h, read-out: Activity
# [18] = Cytotoxicity against human HOP62 cells assessed as cell growth at 7.25 uM after 48 hrs by SRB assay; settings: HOP-62, 48 h, read-out: Activity
# [19] = Cytotoxicity against human SF268 cells assessed as cell growth at 2.13 uM after 48 hrs by SRB assay; settings: SF-268, 48 h, read-out: Activity
# [20] = Cytotoxicity against human LOXIMVI cells assessed as cell growth at 2.13 uM after 48 hrs by SRB assay; settings: LOX IMVI, read-out: Activity
# SK-MEL-2 = assay: Cytotoxicity against human SK-MEL-2 cells assessed as cell growth at 2.13 uM after 48 hrs by SRB assay; settings: SK-MEL-2, 48 h, read-out: Activity
# [21] = Cytotoxicity against human UACC257 cells assessed as cell growth at 2.13 uM after 48 hrs by SRB assay; settings: UACC-257, 48 h, read-out: Activity
# [22] = Cytotoxicity against human OVCAR8 cells assessed as cell growth at 2.13 uM after 48 hrs by SRB assay; settings: OVCAR-8, 48 h, read-out: Activity
# [23] = Cytotoxicity against human NCI-ADR-RES cells assessed as cell growth at 2.13 uM after 48 hrs by SRB assay; settings: read-out: Activity
# 786-0 [24] = assay: Cytotoxicity against human 786-0 cells assessed as cell growth at 2.13 uM after 48 hrs by SRB assay; settings: 786-0, 48 h, read-out: Activity
# [25] = Cytotoxicity against human Caki1 cells assessed as cell growth at 2.13 uM after 48 hrs by SRB assay; settings: CAKI-1, 48 h, read-out: Activity
# [26] = Cytotoxicity against human UO31 cells assessed as cell growth at 2.13 uM after 48 hrs by SRB assay; settings: UO-31, 48 h, read-out: Activity
# [27] = Cytotoxicity against human DU145 cells assessed as cell growth at 2.13 uM after 48 hrs by SRB assay; settings: DU-145, 48 h, read-out: Activity
# [28] = Cytotoxicity against human Hs 578T cells assessed as cell growth at 2.13 uM after 48 hrs by SRB assay; settings: read-out: Activity
# A549 [29] = assay: Cytotoxicity against human A549 cells assessed as cell mortality at 2.13 uM after 48 hrs by SRB assay; settings: A549, 48 h
# K562 = assay: Cytotoxicity against human K562 cells assessed as cell growth at 2.13 uM after 48 hrs by SRB assay; settings: K562, 48 h, read-out: Activity
# [30] = Cytotoxicity against human MOLT4 cells assessed as cell growth at 2.13 uM after 48 hrs by SRB assay; settings: MOLT-4, 48 h, read-out: Activity
# SR = assay: Cytotoxicity against human SR cells assessed as cell growth at 2.13 uM after 48 hrs by SRB assay; settings: read-out: Activity
# EKVX [31] = assay: Cytotoxicity against human EKVX cells assessed as cell growth at 2.13 uM after 48 hrs by SRB assay; settings: read-out: Activity
# NCI-H460 = assay: Cytotoxicity against human NCI-H460 cells assessed as cell growth at 2.13 uM after 48 hrs by SRB assay; settings: NCI-H460, 48 h, read-out: Activity
compound,measurement,setting,value
CC(C)C[C@H](NC(=O)[C@H](CCCCN)NC(=O)[C@H](C)NC(=O)[C@H](CC(C)C)NC(=O)[C@H](CCCCN)NC(=O)[C@H](CCCCN)NC(=O)[C@H](C)NC(=O)[C@H](CC(C)C)NC(=O)[C@H](CCCCN)NC(=O)[C@H](C)NC(=O)[C@H](CC(C)C)NC(=O)[C@H](CCCCN)NC(=O)[C@@H](N)CC(=O)O)C(=O)N[C@@H](C)C(=O)N[C@@H](CCCCN)C(=O)N[C@@H](C)C(=O)N[C@@H](CCCCN)C(N)=O,growth at 10 µM,EKVX [1],104%
same,growth at 10 µM,[2],86.1%
same,growth at 10 µM,[3],114%
same,growth at 10 µM,KM12,103%
same,growth at 10 µM,[4],103%
same,growth at 10 µM,[5],97.2%
same,growth at 10 µM,M14,108%
same,growth at 10 µM,SK-MEL-5,101%
same,growth at 10 µM,[6],71.8%
same,growth at 10 µM,[7],100%
same,growth at 10 µM,[8],109%
same,growth at 10 µM,786-0 [9],105%
same,growth at 10 µM,ACHN [10],107%
CCCCCCCCCCCCCCCC(=O)NCCCC[C@H](NC(=O)[C@H](C)NC(=O)[C@H](CCCCN)NC(=O)[C@H](C)NC(=O)[C@H](CC(C)C)NC(=O)[C@H](CCCCN)NC(=O)[C@H](C)NC(=O)[C@H](CC(C)C)NC(=O)[C@H](CCCCN)NC(=O)[C@H](CCCCN)NC(=O)[C@H](C)NC(=O)[C@H](CC(C)C)NC(=O)[C@H](CCCCN)NC(=O)[C@H](C)NC(=O)[C@H](CC(C)C)NC(=O)[C@H](CCCCN)NC(=O)[C@@H](N)CC(=O)O)C(N)=O,mortality at 7.25 µM,NCI-H226,0%
same,growth at 7.25 µM,[11],102%
same,growth at 7.25 µM,[12],103%
same,growth at 7.25 µM,Malme-3M,102%
same,growth at 7.25 µM,[13],96.4%
same,growth at 7.25 µM,[14],99.8%
same,growth at 7.25 µM,ACHN [15],99.3%
same,growth at 7.25 µM,SN12C,104%
same,growth at 7.25 µM,[16],92.1%
same,growth at 7.25 µM,CCRF-CEM,111%
same,growth at 7.25 µM,A549 [17],67.6%
same,growth at 7.25 µM,[18],99.8%
CCCCCCCCCCCCCCCCNCCO[C@H]1C[C@H](n2cc(C)c(=O)[nH]c2=O)O[C@@H]1C(=O)NCCCC[C@H](NC(=O)[C@H](C)NC(=O)[C@H](CCCCN)NC(=O)[C@H](C)NC(=O)[C@H](CC(C)C)NC(=O)[C@H](CCCCN)NC(=O)[C@H](C)NC(=O)[C@H](CC(C)C)NC(=O)[C@H](CCCCN)NC(=O)[C@H](CCCCN)NC(=O)[C@H](C)NC(=O)[C@H](CC(C)C)NC(=O)[C@H](CCCCN)NC(=O)[C@H](C)NC(=O)[C@H](CC(C)C)NC(=O)[C@H](CCCCN)NC(=O)[C@@H](N)CC(=O)O)C(N)=O,growth at 2.13 µM,[19],100%
same,growth at 2.13 µM,[20],94.6%
same,growth at 2.13 µM,SK-MEL-2,111%
same,growth at 2.13 µM,[21],75.8%
same,growth at 2.13 µM,[22],96.8%
same,growth at 2.13 µM,[23],109%
same,growth at 2.13 µM,786-0 [24],107%
same,growth at 2.13 µM,[25],96.1%
same,growth at 2.13 µM,[26],81.2%
same,growth at 2.13 µM,[27],109%
same,growth at 2.13 µM,[28],101%
same,mortality at 2.13 µM,A549 [29],31%
same,growth at 2.13 µM,K562,106%
same,growth at 2.13 µM,[30],97.8%
same,growth at 2.13 µM,SR,96.6%
same,growth at 2.13 µM,EKVX [31],103%
same,growth at 2.13 µM,NCI-H460,109%
